# Test results reported in patent publication US6944493B2 (priority 1999, dated 2005).
# How the values were obtained:
# Viscosity evaluation = type: physicochemical; settings: ICG 50 mg/ml to 75 mg/ml, WFI as the lone diluent
Compound,consistency of composition (Viscosity evaluation),solubility in WFI versus inventive diluent (lyophilized (amorphous) material),"solubility in WFI (non-lyophilized, crystalline material)"
"CC1(C)C(/C=C/C=C/C=C/C=C2\N(CCCCS(=O)(=O)O)c3ccc4ccccc4c3C2(C)C)=[N+](CCCCS(=O)(=O)[O-])c2ccc3ccccc3c21 [ICG, Indocyanine green]",paste-like consistency,"comparable up to 25 mg/ml, wherein the inventive diluent is superior at concentrations above that level",
"CC1(C)C(/C=C/C=C/C=C/C=C2\N(CCCCS(=O)(=O)O)c3ccc4ccccc4c3C2(C)C)=[N+](CCCCS(=O)(=O)[O-])c2ccc3ccccc3c21 [crystalline ICG, Indocyanine green]",,,low solubility in WFI
